According to patent US6653529B2, “Use of the maize X112 mutant ahas 2 gene and imidazolinone herbicides for selection of transgenic monocots, maize, rice and wheat plants resistant to the imidazolinone herbicides” (BASF Aktiengesellschaft, priority 2000, dated 2003):
Values joined by “and” are separate entries in the source; they are usually repeats but may differ in a detail not shown here. Equal values may be shown once.

What was measured:
Type in all cases: in vivo
[1] = test system: 8692 (wild type control corn line); assay: Greenhouse spray test of corn lines with imidazolinone herbicides, injury score; conditions: for Score, individual plants (0 dead plants, 5 healthy plants with no injury): 16 days after treatment; for M.S.: score 0 (dead) to 5 (healthy), 16 days
[2] = test system: 8692IT (heterozygous XI12 imi-tolerant corn line); assay: as above; conditions: for Score, individual plants (0 dead plants, 5 healthy plants with no injury): 16 days after treatment; for M.S.: score 0 (dead) to 5 (healthy), 16 days
[3] = test system: rice plants (transgenic Lines 26 and 29; Nt control); assay: Greenhouse herbicide tests on rice; conditions: for average seed set in two transgenic lines: PURSUIT, RAPTOR, CADRE, SCEPTER at all rates tested, ARSENAL 1 to 2×; for rate at which growth of transgenic plants was slightly affected: post-emergence, fresh weight and visual observation
Text: We evaluated the response of transgenic rice to PURSUIT® imazethapyr application in the greenhouse. In this experiment, we included 2 transgenic lines and their untransformed counterpart (Nt). The transgenic lines, designated as Line 26 and 29, were T3 progeny derived from previously identified homozygous resistant transgenic plants containing the maize XI12 ahas2 gene driven by its own promoter. All seeds were pre-germinated in water for 2-3 days then grown in a planting mixture consisting of 1:1 soil and MetroMix 360 (The Scotts Company, Marysville, Ohio 43040) in 6-inch pots (2 seeds per pot) in the greenhouse and sprayed with PURSUIT® imazethapyr at 63, 125, or 250 g ai/ha. For post-emergence application, the plants were sprayed 15 days after seeding, at which time most plants had 3 leaves. For pre-emergence treatment, PURSUIT® imazethapyr was sprayed one day after seeding. Each treatment contained 20 plants and, and 3 replicates per treatment. One set of materials was not sprayed and used as control. The plants were grown in the greenhouse and harvested at maturity. The amount of PURSUIT® imazethapyr applied in this study (63, 125, or 250 g ai/ha) was close to 1, 2 or 4× field application rate for imi-resistant corn (refer to Table 3) since PURSUIT® imazethapyr is not currently labeled for use in rice fields. A custom designed belt sprayer was operated as described (Newhouse et al. 1992) for all herbicide applications. Five plants from each treatment were randomly chosen and individually measured for morphological traits. Means and standard deviations were calculated over three replications. Plant heights were measured from the base of the plant to the tip of the flag leaf 93 days after herbicide applications (DAH) and number of tillers per plant were counted 102-103 DAH. Data on number of panicles per plant and yield were collected after plants were harvested.
A total of 9 herbicides, 5 imidazolinones, two rice herbicides and ACCENT® (nicosulfuron) and CLASSIC® (clorimuron-ethyl) were applied in this study. Materials and methods were basically the same as described above, except that instead of 6″ pots, flats with 18 (3″×3″ per cell) cells were used, and 10-12 seeds were planted to one 3″×3″ cell. Ten plants were maintained in one cell in the post-emergence application. Each herbicide was sprayed at 4 different rates, 1, 2, 4, and 6×, as either pre or post-emergence applications with three replications per treatment. The name and amount of herbicide applied in this experiment and information relevant to their commercial applications are listed in Table 3. For simplicity and convenience, the lowest concentration used is referred as 1× rate, 2, 4 and 6× rates can be calculated as multiples of 1×.
To monitor plant response to various herbicides, data on fresh weight was collected. For pre-emergence applications, all plants from one cell were harvested 32 days after spraying (36-day old plants) and weighed. Twenty-nine days after herbicide application, 5 plants (44-day old plants) from each cell in the post-emergence application, were cut and weighed individually. Mean fresh weight for each treatment was calculated over three replications. The remaining 5 plants were grown in the greenhouse to maturity at which time, panicles of 3 plants were collected, and number of filled seeds and number of total kernels were counted to determine percentage of seed set.

[4] = test system: transgenic corn hybrid MAa-7; assay: Greenhouse spray test of corn lines with imidazolinone herbicides, injury score; conditions: MAa-7; for Score, individual plants (0 dead plants, 5 healthy plants with no injury): 16 days after treatment; for M.S.: score 0 (dead) to 5 (healthy), 16 days
Text: (§1) Grow one corn plant per pot (5×5 inch) in a 3×5 flat till three- to four-leaf stage (about 9 to 13 days depending on the weather). On the day of spraying, water the plants well and let excess water drip out. Spray plants on a belt-sprayer with the imidazolinone herbicides at desired rates. […] When temperature was too high, base water plants to prevent wilting. Closely observe the plants for the next two to three weeks. Symptoms of herbicide injury will be visible three days after spraying and susceptible plants will die within two to three weeks depending on temperature.
(§2) The plants were rated on a scale of 0-5 with 0 for dead plants and 5 for healthy plants with no or minimum injury.
(§3) Two transgenic hybrids BAa-4 and MAa-7 lines (see FIG. 5 for their pedigree), a non-transformed control line B×A (B73×A188), 8962IT (heterozygous XI12 imi-tolerant corn line), 8962 (wild type control) and 3395IR (homozygous XA17 imi-resistant corn line) (8962IT and 8962 were from ICI, now Garst Seed Company, Slater, Iowa 50244, and 3395IR was from Pioneer Hi-Bred International Inc, Iowa 50306-3453). Plants were sprayed with 4, 8, 16 or 20×PURSUIT® imazethapyr, ARSENAL® imazapyr, CADRE® imazameth or RAPTOR® imazamox. Plants were scored 0 to 5 (with 0 being dead plants, 5 being healthy plants with no injury) individually 16 days after herbicide treatments. […] For the four tested imidazolinones, transgenic plants could tolerate higher rates of ARSENAL® imazapyr, PURSUIT® imazethapyr, than CADRE® imazameth and RAPTOR® imazamox.

[5] = test system: non-transformed control corn line BxA (B73×A188); assay: as above; conditions: for Score, individual plants (0 dead plants, 5 healthy plants with no injury): 16 days after treatment; for M.S.: score 0 (dead) to 5 (healthy), 16 days
Text: as §1, §2, §3

[6] = test system: transgenic corn hybrid BAa-4; assay: as above; conditions: BAa-4; for Score, individual plants (0 dead plants, 5 healthy plants with no injury): 16 days after treatment; for M.S.: score 0 (dead) to 5 (healthy), 16 days
Text: as §1, §2, §3

[7] = test system: 3395IR (homozygous XA17 imi-resistant corn line); assay: as above; conditions: for Score, individual plants (0 dead plants, 5 healthy plants with no injury): 16 days after treatment; for M.S.: score 0 (dead) to 5 (healthy), 16 days
Text: as §1, §2, §3

[8] = 4×: PURSUIT 250, RAPTOR 160, ARSENAL 96, CADRE 400 g/ha
[9] = 8×: PURSUIT 500, RAPTOR 320, ARSENAL 192, CADRE 800 g/ha
[10] = 16×: RAPTOR 640 g/ha, ARSENAL 384 g/ha, CADRE 1.6 kg/ha

SMILES | Score, individual plants (0 dead plants, 5 healthy plants with no injury) [1, 8] | M.S. [1, 8] | Score, individual plants (0 dead plants, 5 healthy plants with no injury) [1, 9] | M.S. [1, 9] | Score, individual plants (0 dead plants, 5 healthy plants with no injury) [1, 10] | M.S. [1, 10] | Score, individual plants (0 dead plants, 5 healthy plants with no injury) [2, 8] | M.S. [2, 8] | Score, individual plants (0 dead plants, 5 healthy plants with no injury) [2, 9] | M.S. [2, 9] | Score, individual plants (0 dead plants, 5 healthy plants with no injury) [2, 10] | M.S. [2, 10] | average seed set in two transgenic lines [3] | rate at which growth of transgenic plants was slightly affected [3] | Score, individual plants (0 dead plants, 5 healthy plants with no injury) [4, 8] | M.S. [4, 8] | Score, individual plants (0 dead plants, 5 healthy plants with no injury) [4, 9] | M.S. [4, 9] | Score, individual plants (0 dead plants, 5 healthy plants with no injury) [4, 10] | M.S. [4, 10] | also measured
CC(C)C1(C)N=C(c2ncccc2C(=O)O)NC1=O (stereo not drawn) [ARSENAL ®, imazapyr] | 0 | 0 | 0 | 0 | 0 | 0 | 4 | 4 | 4 (2×) and 3 (3×) | 3.4 | 4 and 3 (4×) | 3.2 | about 85% | 6 × | 5 | 5 | 5 | 5 | 5 (4×) and 4 | 4.8 | seed set in the two transgenic lines ([3]; 4× (96 g ai/ha) and 6× (144 g ai/ha)): ≤ 20%; effect on seed set of transgenic plants ([3]; higher rates): severe sterility; Score, individual plants (0 dead plants, 5 healthy plants with no injury) [5, 8]: 0; M.S. [5, 8]: 0; Score, individual plants (0 dead plants, 5 healthy plants with no injury) [5, 9]: 0; M.S. [5, 9]: 0; Score, individual plants (0 dead plants, 5 healthy plants with no injury) [5, 10]: 0; M.S. [5, 10]: 0; Score, individual plants (0 dead plants, 5 healthy plants with no injury) [6, 8]: 5; M.S. [6, 8]: 5; Score, individual plants (0 dead plants, 5 healthy plants with no injury) [6, 9]: 5; M.S. [6, 9]: 5; Score, individual plants (0 dead plants, 5 healthy plants with no injury) [6, 10]: 5 (2×) and 4 (3×); M.S. [6, 10]: 4.4; Score, individual plants (0 dead plants, 5 healthy plants with no injury) [7, 8]: 5; M.S. [7, 8]: 5; Score, individual plants (0 dead plants, 5 healthy plants with no injury) [7, 9]: 5; M.S. [7, 9]: 5; Score, individual plants (0 dead plants, 5 healthy plants with no injury) [7, 10]: 4 and 5 (4×); M.S. [7, 10]: 4.8
Cc1cnc(C2=NC(=O)C(C)(C(C)C)N2)c(C(=O)O)c1 (stereo not drawn) [CADRE ®, imazameth] | 0 | 0 | 0 | 0 | 0 | 0 | 4 (3×) and 5 (2×) | 4.4 | 3 (3×) and 2 (2×) | 2.6 | 1 (2×) and 2 (3×) | 1.6 | about 85% | 6 × | 5 (4×) and 4 | 4.8 | 2 (2×) and 4 (2×) and 3 | 3 | 0 (2×) and 1 (3×) | 0.6 | Score, individual plants (0 dead plants, 5 healthy plants with no injury) [5, 8]: 0; M.S. [5, 8]: 0; Score, individual plants (0 dead plants, 5 healthy plants with no injury) [5, 9]: 0; M.S. [5, 9]: 0; Score, individual plants (0 dead plants, 5 healthy plants with no injury) [5, 10]: 0; M.S. [5, 10]: 0; Score, individual plants (0 dead plants, 5 healthy plants with no injury) [6, 8]: 5; M.S. [6, 8]: 5; Score, individual plants (0 dead plants, 5 healthy plants with no injury) [6, 9]: 3 (2×) and 2 (3×); M.S. [6, 9]: 2.4; Score, individual plants (0 dead plants, 5 healthy plants with no injury) [6, 10]: 3 and 1 and 0 (3×); M.S. [6, 10]: 0.8; Score, individual plants (0 dead plants, 5 healthy plants with no injury) [7, 8]: 5; M.S. [7, 8]: 5; Score, individual plants (0 dead plants, 5 healthy plants with no injury) [7, 9]: 5; M.S. [7, 9]: 5; Score, individual plants (0 dead plants, 5 healthy plants with no injury) [7, 10]: 4 (2×) and 5 (3×); M.S. [7, 10]: 4.6
